The supplement of paper PMC4862054

Key:
Settings in all cases: incubation time: 72 h
BT-474 [1] = assay: normalised response (% of control), CellTox Green; higher = less cell death (100 = DMSO, 0 = benzethonium chloride kill control)
Procedure, shortened: (§1)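 Normalised signals at single concentrations make up the values. They come from breast cancer cell lines seeded (20 µl suspension) into 384-well plates with compound at 5 concentrations in 10-fold steps over a compound-specific 10,000-fold range, incubated 72 h, and read for CellTox Green fluorescence then CellTiter-Glo luminescence. Each plate was normalised to 0.1 % DMSO (100) and a positive kill control (0).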

BT-549 [2] = assay: as above
Procedure, shortened: as §1

CAL-120 [3] = assay: as above
Procedure, shortened: as §1

CAL-148 [4] = assay: as above
Procedure, shortened: as §1

CAL-51 [5] = assay: as above
Procedure, shortened: as §1

CAL-85-1 [6] = assay: as above
Procedure, shortened: as §1

DU-4475 [7] = assay: as above
Procedure, shortened: as §1

HCC1143 [8] = assay: as above
Procedure, shortened: as §1

HCC1599 [9] = assay: as above
Procedure, shortened: as §1

HDQ-P1 [10] = assay: as above
Procedure, shortened: as §1

Hs578T [11] = assay: as above
Procedure, shortened: as §1

MCF-10A [12] = assay: as above
Procedure, shortened: as §1

MDA-MB-231 [13] = assay: as above
Procedure, shortened: as §1

MDA-MB-436 [14] = assay: as above
Procedure, shortened: as §1

MDA-MB-453 [15] = assay: as above
Procedure, shortened: as §1

MDA-MB-468 [16] = assay: as above
Procedure, shortened: as §1

MFM-223 [17] = assay: as above
Procedure, shortened: as §1

BT-474 [18] = assay: normalised response (% of control), CellTiter-Glo; higher = more viable cells (100 = DMSO, 0 = benzethonium chloride kill control)
Protocol: (§2)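 DSRT, 72 h incubation, CellTox Green / CellTiter-Glo readout. Signal is normalised to DMSO and benzethonium chloride controls. Value is the normalised response at dose 3.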

BT-549 [19] = assay: as above
Protocol: as §2

CAL-120 [20] = assay: as above
Protocol: as §2

CAL-148 [21] = assay: as above
Protocol: as §2

CAL-51 [22] = assay: as above
Protocol: as §2

CAL-85-1 [23] = assay: as above
Protocol: as §2

DU-4475 [24] = assay: as above
Protocol: as §2

HCC1143 [25] = assay: as above
Protocol: as §2

HCC1599 [26] = assay: as above
Protocol: as §2

HCC1937 [27] = assay: as above
Protocol: as §2

HDQ-P1 [28] = assay: as above
Protocol: as §2

Hs578T [29] = assay: as above
Protocol: as §2

MCF-10A [30] = assay: as above
Protocol: as §2

MDA-MB-231 [31] = assay: as above
Protocol: as §2

MDA-MB-436 [32] = assay: as above
Protocol: as §2

MDA-MB-453 [33] = assay: as above
Protocol: as §2

MDA-MB-468 [34] = assay: as above
Protocol: as §2

MFM-223 [35] = assay: as above
Protocol: as §2

SK-BR-3 = assay: as above
Protocol: as §2

HCC1937 [36] = assay: normalised response (% of control), CellTox Green; higher = less cell death (100 = DMSO, 0 = benzethonium chloride kill control)
Procedure, shortened: as §1

Structure (SMILES) | normalised response (BT-474 [1]) [%] | normalised response (BT-549 [2]) [%] | normalised response (CAL-120 [3]) [%] | normalised response (CAL-148 [4]) [%] | normalised response (CAL-51 [5]) [%] | normalised response (CAL-85-1 [6]) [%] | normalised response (DU-4475 [7]) [%] | normalised response (HCC1143 [8]) [%] | normalised response (HCC1599 [9]) [%] | normalised response (HDQ-P1 [10]) [%] | normalised response (Hs578T [11]) [%] | normalised response (MCF-10A [12]) [%] | normalised response (MDA-MB-231 [13]) [%] | normalised response (MDA-MB-436 [14]) [%] | normalised response (MDA-MB-453 [15]) [%] | normalised response (MDA-MB-468 [16]) [%] | normalised response (MFM-223 [17]) [%] | normalised response (BT-474 [18]) [%] | normalised response (BT-549 [19]) [%] | normalised response (CAL-120 [20]) [%] | normalised response (CAL-148 [21]) [%] | normalised response (CAL-51 [22]) [%] | normalised response (CAL-85-1 [23]) [%] | normalised response (DU-4475 [24]) [%] | normalised response (HCC1143 [25]) [%] | normalised response (HCC1599 [26]) [%] | normalised response (HCC1937 [27]) [%] | normalised response (HDQ-P1 [28]) [%] | normalised response (Hs578T [29]) [%] | normalised response (MCF-10A [30]) [%] | normalised response (MDA-MB-231 [31]) [%] | normalised response (MDA-MB-436 [32]) [%] | normalised response (MDA-MB-453 [33]) [%] | normalised response (MDA-MB-468 [34]) [%] | normalised response (MFM-223 [35]) [%] | normalised response (SK-BR-3) [%] | normalised response (HCC1937 [36]) [%]
O=[N+]([O-])c1ccc2c(c1)S(=O)(=O)C=C2 [Stattic] (500 nM) | 101 | 102 | 99.8 | 102 | 108 | 98.8 | 107 | 81.2 | 95.4 | 104 | 89.2 | 106 | 107 | 95.3 | 103 | 133 | 96.9 | 94.5 | 85.3 | 98.2 | 98.3 | 99 | 99.5 | 102 | 104 | 103 | 94.3 | 100 | 96.5 | 106 | 90.8 | 100 | 85.2 | 45.6 | 96.8 | 106 | 
CCNC(=O)c1noc(-c2cc(C(C)C)c(O)cc2O)c1-c1ccc(CN2CCOCC2)cc1 [NVP-AUY922] (10 nM) | 95.4 | 81.9 | 93 | 107 | 118 | 73.1 | 98.7 | 119 | 112 | 104 | 105 | 65 |  | 70.9 | 101 | 107 | 106 | 116 | 73.2 | 103 | 114 | 99.3 | 107 | 101 | 107 | 111 | 95.7 | 77.1 | 104 | 95 | 110 | 56.4 | 101 | 32.4 | 70.4 | 55.8 | 
Cc1cc(Nc2nc(N[C@@H](C)c3ncc(F)cn3)ncc2Cl)[nH]n1 [AZD1480] (10 nM) | 98.2 | 65.3 | 95.6 | 66.3 | 111 | 108 | 96.6 | 106 | 99.4 | 97.8 | 109 |  | 95.6 | 73.2 | 98.8 | 136 | 96.4 | 99.9 | 102 | 98.4 | 93.5 | 114 | 103 | 93.9 | 103 | 107 | 98.9 | 97.1 | 92.2 | 92.3 | 96.1 | 106 | 88.9 | 104 | 96 | 97 | 92.2
C=CCn1c(=O)c2cnc(Nc3ccc(N4CCN(C)CC4)cc3)nc2n1-c1cccc(C(C)(C)O)n1 [MK1775] (100 nM) | 95.4 | 105 | 97.8 | 73.4 | 82.8 | 77.2 | 94.9 | 98.6 | 90 | 98.5 | 66.1 | 84.2 | 70.8 | 63.2 | 96.5 | 76.1 | 97.1 | 87.1 | 91.1 | 79 | 73.4 | 94.7 | 90.3 | 93.4 | 89.2 | 81.2 | 90.7 | 74.6 | 87.7 | 73.3 | 81.5 | 69.4 | 67.6 | 89.2 | 82.4 | 79 | 
Nc1ccn([C@@H]2O[C@H](CO)[C@@H](O)C2(F)F)c(=O)n1 [Gemcitabine] (10 nM) | 97.1 | 92.5 | 99.7 | 36.9 | 84.7 | 85 | 101 | 102 | 100 |  | 102 | 103 | 97.9 | 97.1 | 105 | 48.3 | 95.2 | 89.3 | 61.3 | 94.9 | 77.9 | 82 | 85.6 | 96.8 | 68.3 | 89.5 | 90.8 | 102 | 99.3 | 102 | 85.3 | 64.2 | 139 | 52.2 | 100 | 79.6 | 111
Cn1cc(C2=C(c3cn(C4CCN(Cc5ccccn5)CC4)c4ccccc34)C(=O)NC2=O)c2ccccc21 [Enzastaurin] (100 nM) | 101 | 95.4 | 104 | 95 | 104 | 99.2 | 104 |  | 115 | 114 | 111 | 104 | 102 | 86 | 102 | 56.9 | 107 | 103 | 98.3 | 99.1 | 106 | 65 | 107 | 99.4 | 103 | 90.6 | 101 | 94 | 98.2 | 101 | 103 | 102 | 105 | 96.9 | 106 | 104 | 102
CO[C@@H]1[C@H](N(C)C(=O)c2ccccc2)C[C@H]2O[C@]1(C)n1c3ccccc3c3c4c(c5c6ccccc6n2c5c31)C(=O)NC4 [Midostaurin] (100 nM) | 96.4 | 88.8 | 74.9 | 97.8 | 74.1 | 95.8 | 94.6 | 88.6 | 94.5 | 103 | 67 | 108 | 91.2 | 93.9 | 102 | 137 | 103 | 85.3 | 93.4 | 88.5 | 114 | 89.7 | 99 | 96.9 | 95.3 | 99.6 | 85.5 | 95.9 | 83.3 | 68.7 | 85.8 | 102 | 94.3 | 92.4 | 98.8 | 98.4 | 
CC1(COc2ccc3c(c2)ncn3-c2ccc3cccc(N4CCC(N)CC4)c3n2)COC1 [Crenolanib] (100 nM) | 103 | 89.1 | 97.2 | 82.2 | 90.2 | 104 | 103 |  | 99.3 | 105 | 107 | 95.4 | 120 |  | 108 | 99.6 | 94.3 | 108 | 103 | 97.9 | 107 | 77.8 | 112 | 104 | 109 | 110 | 102 | 105 | 103 | 110 | 113 | 103 | 112 | 107 | 104 | 114 | 80.2
O=C(CCCCCCC(=O)Nc1ccccc1)NO [Vorinostat] (100 nM) | 71.5 | 96.8 | 90.8 | 102 | 86.3 | 94.8 | 97.7 | 109 | 95.5 | 102 | 108 | 91.4 | 92.3 | 74.1 | 102 |  | 99.6 | 96.2 | 100 | 96.1 | 108 | 69.6 | 105 | 99.6 | 98.8 | 113 | 97.7 | 97.1 | 98.2 | 101 | 93.6 | 97 | 101 | 110 | 97.8 | 94.5 | 102
